From patent publication US9938281B2 (Merck Sharp & Dohme Corp., priority 2012, dated 2018)
pIC50: −log10 of the molar value.

Assays:
PI3K-alpha = target: T1, PI3K-alpha (Homo sapiens, UniProt P42336); assay: HTRF PI3K biochemical assay, alpha isoform; settings: ratio PI3K-alpha IC50 value / PI3K-delta IC50 value
T1 construct: purchased Upstate; Millipore 14-602

PI3K-delta = target: T2, PI3K-delta (Homo sapiens, UniProt O00329); assay: HTRF PI3K biochemical assay, delta isoform; settings: form screened (neutral or TFA salt) given, read-out: PI3Kdelta IC50
T2 construct: purchased Upstate; Millipore 14-604
T2 sequence (O00329 whole entry, canonical isoform): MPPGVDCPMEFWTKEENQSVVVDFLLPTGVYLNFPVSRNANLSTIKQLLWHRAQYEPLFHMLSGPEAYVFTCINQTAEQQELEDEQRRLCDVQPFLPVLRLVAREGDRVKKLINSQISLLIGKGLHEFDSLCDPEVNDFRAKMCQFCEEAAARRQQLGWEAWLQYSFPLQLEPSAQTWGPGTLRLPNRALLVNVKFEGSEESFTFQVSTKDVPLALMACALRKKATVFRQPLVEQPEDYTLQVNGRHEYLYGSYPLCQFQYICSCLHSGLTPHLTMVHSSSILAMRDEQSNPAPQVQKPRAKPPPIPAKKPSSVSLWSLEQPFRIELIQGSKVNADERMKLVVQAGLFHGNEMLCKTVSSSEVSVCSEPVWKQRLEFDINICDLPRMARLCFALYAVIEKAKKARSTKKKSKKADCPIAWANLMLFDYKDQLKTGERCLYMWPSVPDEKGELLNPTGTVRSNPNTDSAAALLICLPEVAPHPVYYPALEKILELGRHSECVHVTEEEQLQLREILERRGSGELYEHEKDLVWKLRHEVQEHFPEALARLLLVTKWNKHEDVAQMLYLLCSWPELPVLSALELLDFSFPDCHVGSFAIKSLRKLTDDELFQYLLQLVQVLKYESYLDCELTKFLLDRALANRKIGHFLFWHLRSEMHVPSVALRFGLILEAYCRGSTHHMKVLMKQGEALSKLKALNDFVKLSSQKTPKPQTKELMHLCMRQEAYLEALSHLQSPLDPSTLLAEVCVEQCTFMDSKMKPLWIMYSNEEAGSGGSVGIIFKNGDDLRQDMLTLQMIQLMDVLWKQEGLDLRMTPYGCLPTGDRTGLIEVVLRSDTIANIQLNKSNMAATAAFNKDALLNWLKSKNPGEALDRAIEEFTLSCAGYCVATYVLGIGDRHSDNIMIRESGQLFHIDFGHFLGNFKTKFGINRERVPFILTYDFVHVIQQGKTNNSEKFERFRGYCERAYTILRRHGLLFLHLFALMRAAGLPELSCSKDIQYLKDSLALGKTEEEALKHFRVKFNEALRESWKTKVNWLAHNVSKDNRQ
T2 sequence (P27986 whole entry partner, canonical isoform): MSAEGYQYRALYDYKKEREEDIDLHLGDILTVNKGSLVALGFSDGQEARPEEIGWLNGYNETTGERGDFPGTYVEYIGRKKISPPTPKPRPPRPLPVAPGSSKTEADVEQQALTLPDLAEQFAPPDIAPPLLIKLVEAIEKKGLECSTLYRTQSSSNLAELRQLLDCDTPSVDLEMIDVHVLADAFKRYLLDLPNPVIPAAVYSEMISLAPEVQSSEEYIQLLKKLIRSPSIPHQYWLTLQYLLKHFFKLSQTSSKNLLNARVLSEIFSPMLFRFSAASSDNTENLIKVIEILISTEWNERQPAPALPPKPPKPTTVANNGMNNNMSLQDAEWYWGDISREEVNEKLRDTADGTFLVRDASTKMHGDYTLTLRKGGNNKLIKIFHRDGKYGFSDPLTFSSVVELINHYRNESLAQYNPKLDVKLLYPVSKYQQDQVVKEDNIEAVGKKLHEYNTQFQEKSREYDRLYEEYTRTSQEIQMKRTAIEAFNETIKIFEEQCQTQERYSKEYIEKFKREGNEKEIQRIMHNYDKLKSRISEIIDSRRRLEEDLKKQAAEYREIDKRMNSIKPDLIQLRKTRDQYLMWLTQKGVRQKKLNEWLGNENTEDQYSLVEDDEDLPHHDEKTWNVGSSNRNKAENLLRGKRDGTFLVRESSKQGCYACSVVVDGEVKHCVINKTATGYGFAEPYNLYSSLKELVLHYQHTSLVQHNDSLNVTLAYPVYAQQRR
Description: HTRF PI3K Biochemical Assay to Measure Intrinsic Potency of Compound Inhibitors
This assay was developed and further optimized from a kit produced by Upstate (Millipore catalog #33-047) and has been configured for HTS and SAR screening. Briefly, this procedure exploits the exquisite specificity and high affinity binding of enzyme reaction substrate phosphatidyl(3,4,5)triphosphate (PIP3) to the GRP1 pleckstrin homology (PH) domain to generate the signal. In the absence of PIP3, an HTRF (Homogeneous Time-Resolved Fluorescence energy transfer) complex is formed consisting of europium (Eu)-labeled anti-GST, GSTtagged GRP1-PH domain, biotin-PIP3 and streptavidin conjugated APC. The native PIP3 produced by PI3-Kinase activity disrupts in a competitive manner the biotin-PIP3 from the PH domain, resulting in the loss of energy transfer (HTRF complex) and a decrease in the signal. The format of this assay is the same for all 4 isoforms of PI3K; the differences lie in the concentration of enzyme used to achieve robust assay window. The alpha, beta, and delta assays are run at 0.5, 1, and 0.3 nM enzymes and the gamma assay is run at 5 nM enzyme. The ATP concentration is 100 uM in the alpha, beta, and delta assays and 50 uM ATP in the gamma assay. All reactions are run at 5 uM PIP2.
Compounds are serially diluted (3-fold in 100% DMSO) across a 384-well polypropylene source plated from column 3 to column 12 and column 13 to column 22, to yield 10 concentration dose response for each test compound. Columns 1, 2, 23 and 24 contain either only DMSO or pharmacological known control inhibitor.
The PI3-Kinase biochemical assay was optimized using the HTRF kit provided by Upstate (Millipore). The assay kit contains six reagents: 1) 4× Reaction Buffer; 2) native PIP2 (substrate); 3) Stop (EDTA); 4) Detection Mix A (Streptavidin-APC); 5) Detection Mix B (Eu-labeled Anti-GST plus GST-tagged PH-domain); 6) Detection Mix C.
PI3Kinase Reaction Buffer is prepared by dilution the stock 1:4 with de-ionized water. […] Enzyme addition and compound pre-incubation are initiated by the addition of 1.25 ul of PI3K (at twice its final concentration) in the 1× reaction buffer to all wells using a BioRaptor. Plates are incubated at room temperature for 15 minutes. Reactions are initiated by addition of 1.25 ul of 2× substrate solution (PIP2 and ATP in 1× reaction buffer) using BioRaptor. Plates are incubated in humidified chamber at room temperature for one hour. Reactions are quenched by addition of 0.625 uL of stop solution to all wells using the BioRaptor. The quenched reactions are then processed to detect product formation by adding 0.625 uL of Detection Solution to all wells using the BioRaptor (Detection mix C, Detection Mix A, and Detection Mix B combined together in an 18:1:1 ratio prepared 2 hours prior to use).
The loss of the HTRF signal is due to the displacement of biotinylated-PIP3 from the PH domain by the PI3K-dependent conversion of PIP2 to PIP3. This loss of signal is nonlinear with respect to both increasing product and time. This non-linear detection will impact accuracy of IC50 calculations; therefore, there is a need for a correction factor to obtain more accurate IC50 values. This correction is derived from a PIP3 standard curve run in a separate assay plate. All data were calculated using the ratio of acceptor (APC) to donor (Europium) fluorescence in each well of the assay plate. […] An IC50 was then calculated fitting the % inhibition data to the equation: % inhibition=min+(Max−min)/1+([inhibitor]/IC50)^n) where min is the % inhibition with inhibitor, max is the signal in DMSO control, and n is the Hill slope.

T1 sequence (P42336 whole entry, canonical isoform): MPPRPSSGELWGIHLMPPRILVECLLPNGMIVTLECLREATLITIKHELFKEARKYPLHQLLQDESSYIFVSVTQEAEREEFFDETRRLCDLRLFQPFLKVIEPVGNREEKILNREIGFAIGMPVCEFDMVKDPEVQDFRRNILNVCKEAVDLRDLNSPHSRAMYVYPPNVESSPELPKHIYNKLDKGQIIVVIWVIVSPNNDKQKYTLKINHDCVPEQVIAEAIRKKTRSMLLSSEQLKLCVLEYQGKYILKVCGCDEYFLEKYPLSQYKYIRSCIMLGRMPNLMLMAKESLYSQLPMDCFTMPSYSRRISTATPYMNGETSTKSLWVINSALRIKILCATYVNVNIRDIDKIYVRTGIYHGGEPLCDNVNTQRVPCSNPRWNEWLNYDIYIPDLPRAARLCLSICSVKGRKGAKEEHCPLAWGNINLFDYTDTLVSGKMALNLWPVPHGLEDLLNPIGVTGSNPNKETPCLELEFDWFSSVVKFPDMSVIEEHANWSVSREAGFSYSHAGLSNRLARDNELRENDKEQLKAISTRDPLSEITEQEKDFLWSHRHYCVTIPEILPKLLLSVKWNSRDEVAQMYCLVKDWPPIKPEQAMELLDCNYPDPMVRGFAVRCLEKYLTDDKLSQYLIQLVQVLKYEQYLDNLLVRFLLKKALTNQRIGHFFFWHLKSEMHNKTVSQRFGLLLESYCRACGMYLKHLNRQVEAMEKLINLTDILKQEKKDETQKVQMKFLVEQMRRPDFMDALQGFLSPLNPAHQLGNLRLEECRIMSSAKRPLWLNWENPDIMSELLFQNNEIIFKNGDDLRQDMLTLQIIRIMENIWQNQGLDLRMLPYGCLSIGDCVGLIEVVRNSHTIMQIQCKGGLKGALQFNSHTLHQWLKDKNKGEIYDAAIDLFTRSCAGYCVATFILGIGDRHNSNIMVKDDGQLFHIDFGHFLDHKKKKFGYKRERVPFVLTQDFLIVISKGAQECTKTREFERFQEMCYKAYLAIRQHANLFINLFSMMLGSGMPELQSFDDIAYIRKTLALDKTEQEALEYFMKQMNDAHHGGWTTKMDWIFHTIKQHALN
T1 sequence (P27986 whole entry partner, canonical isoform): as the sequence (P27986 whole entry partner, canonical isoform) above

Row | Structure (SMILES) | Selectivity versus PI3Kalpha (PI3K-alpha) | pIC50 (PI3K-delta)
1 | CCn1c(-c2cnc(C)nc2)nc2c(N[C@H]3CCN(C(=O)[C@H]4C[C@H]4C)C3)ncnc21 [Compound 2-91, 9-ethyl-N-[(3S)-1-{[(1S,2R)-2-methylcyclopropyl]carbonyl}pyrrolidin-3-yl]-8-(2-methylpyrimidin-5-yl)-9H-purin-6-amine] | >10 | 7.92
2 | CCn1c(-c2cnc(C)nc2)nc2c(N[C@H]3CCN(C(=O)[C@@H]4C[C@H]4C)C3)ncnc21 [Compound 2-92, 9-ethyl-N-[(3S)-1-{[(1R,2R)-2-methylcyclopropyl]carbonyl}pyrrolidin-3-yl]-8-(2-methylpyrimidin-5-yl)-9H-purin-6-amine] | >10 | > 9.00
3 | CCn1c(-c2cnc(C)nc2)nc2c(N[C@H]3CCN(C(=O)[C@H]4C[C@@H]4C)C3)ncnc21 [Compound 2-93, 9-ethyl-N-[(3S)-1-{[(1S,2S)-2-methylcyclopropyl]carbonyl}pyrrolidin-3-yl]-8-(2-methylpyrimidin-5-yl)-9H-purin-6-amine] | >10 | 7.95
4 | CCn1c(-c2cnc(C)nc2)nc2c(N[C@H]3CCN(C(=O)C4CC4)[C@@H]3C)ncnc21 [Compound 2-94, N-[(2R,3S)-1-(cyclopropylcarbonyl)-2-methylpyrrolidin-3-yl]-9-ethyl-8-(2-methylpyrimidin-5-yl)-9H-purin-6-amine] | >10 | > 9.00
5 | CCn1c(-c2cnc(C)nc2)nc2c(N[C@H]3CCN(C(=O)[C@H]4CC[C@@H](O)CC4)C3)ncnc21 [Compound 2-98, cis-4-{[(3S)-3-{[9-ethyl-8-(2-methylpyrimidin-5-yl)-9H-purin-6-yl]amino}pyrrolidin-1-yl]carbonyl}cyclohexanol] | >10 | 8.55
6 | CCn1c(-c2cnc(C)nc2)nc2c(N[C@H]3CCN(C(=O)[C@H]4CC[C@H](O)CC4)C3)ncnc21 [Compound 2-99, trans-4-{[(3S)-3-{[9-ethyl-8-(2-methylpyrimidin-5-yl)-9H-purin-6-yl]amino}pyrrolidin-1-yl]carbonyl}cyclohexanol] | >10 | 8.55
7 | CCn1c(-c2cnc(C)nc2)nc2c(N(C)[C@H]3CCN(C(=O)[C@H]4CC[C@@H](O)CC4)C3)ncnc21 [Compound 2-100, cis-4-{[(3S)-3-{[9-ethyl-8-(2-methylpyrimidin-5-yl)-9H-purin-6-yl](methyl)amino}pyrrolidin-1-yl]carbonyl}cyclohexanol] | >10 | 8.20
8 | CCn1c(-c2ccc(C(F)(F)F)nc2)nc2c(N[C@H]3CCN(C(=O)[C@H]4C[C@@H](OC)C4)C3)ncnc21 [Compound 2-105, 9-ethyl-N-{(3S)-1-[(cis-3-methoxycyclobutyl)carbonyl]pyrrolidin-3-yl}-8-[6-(trifluoromethyl)pyridin-3-yl]-9H-purin-6-amine] | >10 | > 9.00
9 | CCn1c(-c2ccc(C(F)(F)F)nc2)nc2c(N[C@H]3CCN(C(=O)[C@H]4C[C@H](OC)C4)C3)ncnc21 [Compound 2-106, 9-ethyl-N-{(3S)-1-[(trans-3-methoxycyclobutyl)carbonyl]pyrrolidin-3-yl}-8-[6-(trifluoromethyl)pyridin-3-yl]-9H-purin-6-amine] | >10 | 8.92
10 | CCC(=O)N1CC[C@H](Nc2ncnc3c2nc(-c2ccc(C(F)(F)F)nc2)n3C)C1 [Compound 3-1, (S)-1-(3-((9-methyl-8-(6-(trifluoromethyl)pyridin-3-yl)-9H-purin-6-yl)amino)pyrrolidin-1-yl)propan-1-one] | >10 | 7.96
11 | CCC(=O)N1CC[C@H](Nc2ncnc3c2nc(-c2cnc4[nH]ccc4c2)n3C)C1 [Compound 3-2, (S)-1-(3-((9-methyl-8-(1H-pyrrolo[2,3-b]pyridin-5-yl)-9H-purin-6-yl)amino)pyrrolidin-1-yl)propan-1-one] | >10 | > 9.00
12 | CCC(=O)N1CC[C@H](Nc2ncnc3c2nc(-c2ccc4[nH]ncc4c2)n3C)C1 [Compound 3-3, (S)-1-(3-((8-(1H-indazol-5-yl)-9-methyl-9H-purin-6-yl)amino)pyrrolidin-1-yl)propan-1-one] | >10 | 8.37
13 | CCC(=O)N1CC[C@H](Nc2ncnc3c2nc(-c2ccc4cc[nH]c4c2)n3C)C1 [Compound 3-4, (S)-1-(3-((8-(1H-indol-6-yl)-9-methyl-9H-purin-6-yl)amino)pyrrolidin-1-yl)propan-1-one] | >10 | 8.11
14 | CCC(=O)N1CC[C@H](Nc2ncnc3c2nc(-c2ccc(C)nc2)n3C)C1 [Compound 3-5, (S)-1-(3-((9-methyl-8-(6-methylpyridin-3-yl)-9H-purin-6-yl)amino)pyrrolidin-1-yl)propan-1-one] | >10 | 8.35
15 | CCC(=O)N1CC[C@H](Nc2ncnc3c2nc(-c2ccc4cn[nH]c4c2)n3C)C1 [Compound 3-6, (S)-1-(3-((8-(1H-indazol-6-yl)-9-methyl-9H-purin-6-yl)amino)pyrrolidin-1-yl)propan-1-one] | >10 | 8.80
16 | CCC(=O)N1CC[C@H](Nc2ncnc3c2nc(-c2cnc(OC)c(C(F)(F)F)c2)n3C)C1 [Compound 3-7, (S)-1-(3-((8-(6-methoxy-5-(trifluoromethyl)pyridin-3-yl)-9-methyl-9H-purin-6-yl)amino)pyrrolidin-1-yl)propan-1-one] | >10 | 8.66
17 | CCC(=O)N1CC[C@H](Nc2ncnc3c2nc(-c2ccc4[nH]ccc4c2)n3C)C1 [Compound 3-8, (S)-1-(3-((8-(1H-indol-5-yl)-9-methyl-9H-purin-6-yl)amino)pyrrolidin-1-yl)propan-1-one] | >10 | 7.85
18 | CCC(=O)N1CC[C@H](Nc2ncnc3c2nc(-c2cc(O)cc(F)c2)n3C)C1 [Compound 3-9, 3-fluoro-5-(9-methyl-6-{[(3S)-1-propanoylpyrrolidin-3-yl]amino}-9H-purin-8-yl)phenol] | >10 | 8.89
19 | CCC(=O)N1CC[C@H](Nc2ncnc3c2nc(-c2ccc(OC)c(F)c2)n3C)C1 [Compound 3-10, 8-(3-fluoro-4-methoxyphenyl)-9-methyl-N-[(3S)-1-propanoylpyrrolidin-3-yl]-9H-purin-6-amine] | >10 | 8.74
20 | CCC(=O)N1CC[C@H](Nc2ncnc3c2nc(-c2cnn(-c4ccccc4)c2C)n3C)C1 [Compound 3-11, 9-methyl-8-(5-methyl-1-phenyl-1H-pyrazol-4-yl)-N-[(3S)-1-propanoylpyrrolidin-3-yl]-9H-purin-6-amine] | >10 | > 9.00
21 | CCC(=O)N1CC[C@H](Nc2ncnc3c2nc(-c2ncn(CC)c2C)n3C)C1 [Compound 3-12, 8-(1-ethyl-5-methyl-1H-imidazol-4-yl)-9-methyl-N-[(3S)-1-propanoylpyrrolidin-3-yl]-9H-purin-6-amine] | >10 | 6.16
22 | CCC(=O)N1CC[C@H](Nc2ncnc3c2nc(-c2cncc(N)c2)n3C)C1 [Compound 3-13, 8-(5-aminopyridin-3-yl)-9-methyl-N-[(3S)-1-propanoylpyrrolidin-3-yl]-9H-purin-6-amine] | >10 | 8.62
23 | CCC(=O)N1CC[C@H](Nc2ncnc3c2nc(-c2ccc(Cl)nc2)n3C)C1 [Compound 3-14, 8-(6-chloropyridin-3-yl)-9-methyl-N-[(3S)-1-propanoylpyrrolidin-3-yl]-9H-purin-6-amine] | >10 | 8.68
24 | CCC(=O)N1CC[C@H](Nc2ncnc3c2nc(-c2cnc(C)nc2)n3C)C1 [Compound 3-15, 9-methyl-8-(2-methylpyrimidin-5-yl)-N-[(3S)-1-propanoylpyrrolidin-3-yl]-9H-purin-6-amine] | >10 | 8.37
25 | Cc1ncc(-c2nc3c(N[C@H]4CCN(C(=O)C5CC5)C4)ncnc3n2C)cn1 [Compound 3-23, N-[(3S)-1-(cyclopropylcarbonyl)pyrrolidin-3-yl]-9-methyl-8-(2-methylpyrimidin-5-yl)-9H-purin-6-amine] | >10 | 8.27
26 | CCn1c(-c2cnc3[nH]ccc3c2)nc2c(N[C@H]3CCN(C(=O)C4CC4)C3)ncnc21 [Compound 3-24, N-[(3S)-1-(cyclopropylcarbonyl)pyrrolidin-3-yl]-9-ethyl-8-(1H-pyrrolo[2,3-b]pyridin-5-yl)-9H-purin-6-amine] | >10 | > 9.00
27 | CCn1c(-c2cnc(OC)c(Cl)c2)nc2c(N[C@H]3CCN(C(=O)C4CC4)C3)ncnc21 [Compound 3-25, 8-(5-chloro-6-methoxypyridin-3-yl)-N-[(3S)-1-(cyclopropylcarbonyl)pyrrolidin-3-yl]-9-ethyl-9H-purin-6-amine] | >10 | > 9.00
28 | CCC(=O)N1CC[C@H](Nc2ncnc3c2nc(-c2ccc(S(C)(=O)=O)cc2)n3C)C1 [Compound 3-27, 9-methyl-8-[4-(methylsulfonyl)phenyl]-N-[(3S)-1-propanoylpyrrolidin-3-yl]-9H-purin-6-amine] | >10 | 7.41
29 | CCN(c1ncnc2c1nc(-c1cnc(C)nc1)n2CC)[C@H]1CCN(C(=O)C2CC2)C1 [Compound 3-28, N-[(3S)-1-(cyclopropylcarbonyl)pyrrolidin-3-yl]-N,9-diethyl-8-(2-methylpyrimidin-5-yl)-9H-purin-6-amine] | >10 | 8.17
30 | CCn1c(-c2cnc(C)nc2)nc2c(N(C)[C@H]3CCN(C(=O)C4CC4)C3)ncnc21 [Compound 3-29, N-[(3S)-1-(cyclopropylcarbonyl)pyrrolidin-3-yl]-9-ethyl-N-methyl-8-(2-methylpyrimidin-5-yl)-9H-purin-6-amine] | >10 | 7.40
